Results taken from ChEMBL document CHEMBL1137626, “Identifying common metalloprotease inhibitors by protein fold types using Fourier transform mass spectrometry” (Bioorg Med Chem Lett, 2007).

Experiment: Inhibition of thermolysin by enzcheck protease assay

| IC50 | Ki | SMILES |
| --- | --- | --- |
| 18.3 µM | 4.88 µM | CCCCC[C@H](CC(=O)NO)C(=O)N[C@H](C(=O)N1CCC[C@H]1CO)C(C)C [ACTINONIN] |
| 13.8 µM | 6.98 µM | CC(C)C[C@H](NP(=O)(O)O[C@@H]1O[C@@H](C)[C@H](O)[C@@H](O)[C@H]1O)C(=O)N[C@@H](Cc1c[nH]c2ccccc12)C(=O)O [PHOSPHORAMIDON] |
